Laboratory results published in US6500845B1, “Lactam derivatives as immunomodulating agents” (Gruenenthal GmbH, priority 1994, dated 2002).
≈ marks a conversion by molar mass, not a printed value.

Tests used:
[1] = test system: IL-2 release in vivo (T-lymphocytes stimulated by staphylococcal enterotoxin B); parameters: species or system Balb/c mice; settings: mouse; for ED40 (dosage reducing serum IL-2 concentrations by 40%): ip
[2] = test system: LPS-induced TNF-α release, human mononuclear cells; assay: LPS-induced TNF-α release from human mononuclear cells of the peripheral blood; assay type: cell-based; settings: 20 hours incubation; for IC50: Homo sapiens, LPS-induced, read-out: IC50 (50% inhibition in the release of TNF-α); for Inhibition of TNF-α release in (%): concentration of 50 μ/ml, LPS 2.5 μg
Description: The release of cytokines from human mononuclear cells of the peripheral blood, i.e. T-cells, B-cells and monocytes, can be studied in vitro after stimulation by lipopolysaccharide (LPS) or the toxic shock syndrome toxin-1 (TSST-1). LPS is a component of the bacterial cell wall and stimulates monocytes and macrophages. TSST-1 is a bacterial superantigen that stimulates T-cells as well as monocytes/macrophages. Superantigens bind to the Vβ chain of the T-cell receptor and to the MHC class II and thus simulate the recognition by a specific T-cell receptor of an antigen presented by the MHC class II. Activation of cells by LPS or TSST-1 induces the release of TNF-α, IFN-γ and other cytokines.
Mononuclear cells were prepared from the heparinized blood of at least three voluntary donors. For this purpose, 20 ml blood samples each were separated according to well known procedures using a Ficoll-Paque gradient. The cells were harvested and washed three times with a cell culture medium. This cell culture medium was composed of RPMI 1640 medium supplemented with 2 mM of glutamine (Life Technologies, Eggenstein, Germany), 10% fetal calf serum (Life Technologies), 50 μg/ml of streptomycin (Sigma, Deisenhofen, Germany), 50 IU/ml of penicillin (Sigma) and 100 μM of b-mercaptoethanol (Merck, Darmstadt, Germany). The mononuclear cells were suspended in 15 ml of cell culture medium and separated in 1 ml fractions in sterile 24-well incubation plates (Sigma). 1 μl of dimethylsulfoxide (DMSO) or 1 μl of a DMSO-solution containing 5 ′ by weight of a compound according to the invention was added to each of the 1 ml fractions. After incubation for 1 hour in a CO2-incubator (5% CO2, 90% humidity), 2.5 μg of LPS (from E. coli 0127: B8, Sigma) or 0.1 μg of TSST-1 (Sigma) were added to each of the fractions containing a compound according to the invention. Incubation of the cultures was continued for 20 hours. The concentrations of TNF-α and IFN-γ in the cell culture supernatants were determined with commercial ELISA-tests (Boehringer Mannheim, Germany; Endogen, Boston, Mass.).
The IC50 value is the concentration in μg/ml which produces a 50% inhibition in the release of TFN-α.

[3] = test system: TSST-1-induced release of TNF-α, human mononuclear cells; assay type: cell-based
[4] = test system: TSST-1-induced release of IFN-γ, human mononuclear cells; assay type: cell-based

| SMILES | Maximum inhibition of serum IL-2 increase in % [1] [%] | ED40 (dosage reducing serum IL-2 concentrations by 40%) [1] | IC50 [2] [µg/mL] | Inhibition of TNF-α release in (%) [2] [%] | Effect on TSST-1-induced release of TNF-α [3] | Effect on TSST-1-induced release of IFN-γ [4] | melting point [°C] |
| --- | --- | --- | --- | --- | --- | --- | --- |
| CC1(N2Cc3ccccc3C2=O)CCC(=O)NC1=O (single isomer, unassigned; (-)) [Example 3 (−) enantiomer, (−)-3-Methyl-3-(1-oxo-1,3-dihydro-isoindol-2-yl)-piperidine-2,6-dione] | 54 ± 5 | 297 mg/kg i.p. | 8 (≈ 31 µM) | 82 ± 5 |  |  |  |
| CC1(n2sc3ccccc3c2=O)CCCNC1=O (stereo not drawn) [Example 4, 2-(3-methyl-2-oxo-piperidin-3-yl)-benzo[d]isothiazol-3-one] | 52 ± 3 | <10 mg/kg i.p. |  | 93 ± 9 |  |  |  |
| CC1(n2[se]c3ccccc3c2=O)CCCNC1=O (stereo not drawn) [Example 1, 2-(3-Methyl-2-oxo-piperidin-3-yl)-benzo[d]isoselenazol-3-one] | 43 ± 5 | ca. 20^ mg/kg i.p. |  | 93 ± 1 |  |  |  |
| O=C1CCC(N2C(=O)c3ccccc3C2=O)C(=O)N1 (stereo not drawn) [Thalidomide, reference compound] | 56 ± 10 | 171 mg/kg i.p. | 50 (≈ 194 µM) | 54 ± 7 |  |  |  |
| CC1(N2Cc3ccccc3C2=O)CCC(=O)NC1=O (racemic) [Example 2, 3-Methyl-3-(1-oxo-1,3-dihydro-isoindol-2-yl)-piperidine-2,6-dione] | 56 ± 3 | 112 mg/kg i.p. | 10 (≈ 38.7 µM) | 72 ± 8 | enhanced compared to thalidomide | enhanced compared to thalidomide | 231 to 232 |
